Measurements published in BigSolDB 2.1.

Nc1nnc[nH]1
solubility (mole fraction)
Details	in 1,4-dioxane	in 2-butanone	in NMP	in acetone	in acetonitrile	in ethanol	in ethyl acetate	in isopropanol	in methanol	in n-propanol
283.15 K	–	0.00169	0.145	0.00476	0.00061	0.0112	0.00147	0.00423	0.0306	0.0057
285.65 K	–	0.00191	0.152	0.00515	0.000713	0.0126	0.00168	0.00515	0.0329	0.007
288.15 K	0.00325	0.00214	0.159	0.00564	0.000871	0.0143	0.0019	0.00634	0.0353	0.00835
290.65 K	0.0037	0.00242	0.166	0.00617	0.00106	0.0165	0.00213	0.00755	0.038	0.00983
293.15 K	0.00404	0.00272	0.173	0.00672	0.00127	0.0187	0.00237	0.00912	0.0408	0.0116
295.65 K	0.00449	0.00306	0.181	0.00727	0.00153	0.0213	0.00263	0.0111	0.0437	0.0135
298.15 K	0.00506	0.00344	0.189	0.00793	0.00185	0.0239	0.00286	0.0135	0.0471	0.0162
300.65 K	0.00569	0.00386	0.198	0.00869	0.00224	0.0269	0.00313	0.0161	0.0501	0.0189
303.15 K	0.0064	0.00438	0.206	0.0095	0.00273	0.0302	0.00345	0.0191	0.0537	0.022
305.65 K	0.00708	0.00497	0.215	0.0104	0.00327	0.0338	0.00383	0.0217	0.0574	0.0255
308.15 K	0.00785	0.0056	0.225	0.0114	0.00384	0.0378	0.00421	0.0259	0.0613	0.0293
310.65 K	0.00865	0.00626	0.234	0.0123	0.00453	0.042	0.00458	0.0304	0.0654	0.0339
313.15 K	0.00952	0.00698	0.244	0.0133	0.00528	0.0469	0.00503	0.035	0.0701	0.0388
315.65 K	0.0103	0.00768	0.255	0.0142	0.00614	0.0516	0.00549	0.0398	0.0745	0.0448
318.15 K	0.0114	0.00844	0.267	0.0152	0.00698	0.0569	0.00602	0.0453	0.0794	0.0512
